# Laboratory results as given in patent publication US12214036B2, “Combination therapy comprising AXL/MER and PD-1/PD-L1 inhibitors” (Incyte Corporation, priority 2020, dated 2025).
# Columns and labels:
# [1] = tested on: macrophage-mediated suppression of T-cell proliferation; experiment: Macrophage suppression of T-cell proliferation assay; format: cell-based, human
# Description: To examine the functional activity of Compound 1, the effects on macrophage-mediated suppression of T-cell proliferation were evaluated.
# Human PBMCs were isolated from the peripheral blood of healthy donors by density gradient centrifugation on Ficoll-Hypaque (GE Healthcare, Chicago, Ill.; #17-1440-02) followed by purification with anti-CD14 Microbeads (Miltenyi Biotec; #130-050-201). Isolated CD14^+ monocytes/macrophages were incubated with 100 ng/mL M-CSF (R&D Systems; #216-MC) and 50 ng/mL TGFβ1 (R&D Systems; #240-B) at 37° C. for 6 days; 100 μL/well of CD14^+ macrophages were seeded at 0.5×10^6 cells/mL in a 96-well round-bottomed culture plate (Costar; #3799) and treated with Compound 1 overnight at 37° C. CD4^+CD25^− effector T (Teff) cells were isolated using the Dynabeads regulatory CD4^+CD25^+ T-cell kit (Life Technologies; #11363D) and the Teff cells were labeled with carboxyfluorescein succinimidyl ester (CFSE) using the CellTrace CFSE Cell Proliferation kit (ThermoFisher Scientific; #C34554). […] Teff cells were analyzed by a flow cytometer (BD LSRFortessa X-20, BD Biosciences, San Jose, Calif.) and the cell-free supernatant was tested in the Luminex assay (Millipore; #HCYTOMAG-60K_38plex) to measure the concentrations of different cytokines and chemokines.
# CTG-2041 tumors = experiment: Sarcoma PDX model CTG-2041 (angiosarcoma); format: in vivo, athymic nude mice
# Description: Macrophages were allowed to thaw on ice before being lysed with 250 μL/well of 1× Lysis Buffer (Cell Signaling Technology; #9803) and Halt protease and phosphatase inhibitors (ThermoFisher Scientific) for 1 hour at 4° C. The lysed cells were scraped and transferred to an Eppendorf vial on ice. The lysates were centrifuged at 12,700 rpm for 15 minutes at 4° C. PDX tumors were weighed and homogenized with lysis buffer supplemented with protease and phosphatase inhibitor cocktails (Roche, Basel, Switzerland; #11836170001). Tumors were lysed on ice for 30 minutes, followed by centrifugation at 13,000 rpm for 10 minutes. Protein lysates were quantified using BCA Protein Assay Kit (Pierce, ThermoFisher Scientific; #23225). Lysates were transferred to a new tube together with 6× Laemmli SDS sample buffer (Alfa Aesar, Haverhill, Mass.) and the samples were heated for 6 minutes at 95° C. Approximately 50 μg of protein sample was loaded per well using Novex™ 8-16% Tris-Glycine Mini Gels or 4-12% Tris-Glycine Novex WedgeGels (Invitrogen, Carlsbad, Calif.). The proteins were transferred to a nitrocellulose membrane using an iBlot (ThermoFisher Scientific) dry blotting system. The membranes were blocked with 0.5% nonfat dry milk in wash buffer (100 mM NaCl, 10 mM Tris-HCl, pH 8.0, 0.1% Tween 20) for 1 hour at room temperature. The primary antibody used for pMER was from PhosphoSolutions (Aurora, Colo.; #p186-749). The remaining antibodies were obtained from Cell Signaling Technology: MER (#4319), pAXL (#5724), AXL, (#4566), GAS6 (#67202), pAKT (#4060), AKT (#9272), and β-Actin (#4970). Primary antibodies were added at 1:500 and 1:1000, respectively, in 0.5% milk/wash buffer and rocked overnight at 4° C. The membranes were washed three times in wash buffer before incubation with the secondary antibody (anti-rabbit IgG1-HRP; Cell Signaling Technology) at 1:2500 in 0.5% milk/wash buffer for 2 hours at room temperature. The membranes were washed again before the bands were detected with SuperSignal West Dura Extended Duration Chemiluminescent substrate (ThermoFisher Scientific) and were visualized using the Fluorochem M Digital Imager (Protein Simple, San Jose, Calif.).
# MBT-2 cells were obtained from the Japanese Collection of Research Bioresources Cell Bank and were maintained in DMEM supplemented with 10% FBS. MC38 cells were obtained from the NCI. 4T1 cells were obtained from ATCC and maintained in RPMI media supplemented with 10% FBS. For MBT-2 experiments, 5×10^5 MBT-2 cells were inoculated subcutaneously into the right hind flank of 6- to 8-week-old C3H mice or athymic nude mice (Charles River Laboratories, Wilmington, Mass.). For MC38 studies, 12-week old female C57BL/6 mice were inoculated with brei of MC38 tumors (in-vivo passage 6) into the right hind flank. For 4T1 studies, 7.5×10^5 4 T1 cells were inoculated subcutaneously into the right hind flank of 6- to 8-week-old female BALB/c mice or athymic nude mice (Charles River Laboratories). Mice were randomized by tumor volume with n=10-12 per group. Compound 1 was dosed orally twice a day (BID) continuously from the start to the end of study. In the MC38 study, anti-programmed death ligand 1 (PD-L1) (BE0101, Bio X Cell, West Lebanon, NH) was dosed intraperitoneally at 15 mg/kg twice a week. […] Mice were monitored for tumor growth and overt tolerability over the course of the experiment. […]
smiles,measurement,setting,value
"CC(C)C(=O)N1CCC(c2cc(-c3ccc(NC(=O)c4cn(C(C)C)c(=O)n(-c5ccccn5)c4=O)cc3)c3c(N)ncnn23)CC1 [Compound 1, N-(4-(4-Amino-7-(1-isobutyrylpiperidin-4-yl)pyrrolo[1,2-f][1,2,4]triazin-5-yl)phenyl)-1-isopropyl-2,4-dioxo-3-(pyridin-2-yl)-1,2,3,4-tetrahydropyrimidine-5-carboxamide]",effect on macrophage-mediated suppression of T-cell proliferation,[1]; FIG. 5A,partially reversed macrophage-mediated suppression of T-cell proliferation
same,IFN-γ production,"[1]; macrophage/T-cell co-culture supernatant, FIG. 5B",increase in IFN-γ production
same,TGI,"CTG-2041 tumors; CTG-2041, equivalent activity at 10, 30 and 100 mg/kg BID oral, FIG. 9A",95%
same,GAS6 levels in tumors (Western blot),"CTG-2041 tumors; CTG-2041 tumors, FIG. 9D",increased
same,pAKT in tumors (Western blot),"CTG-2041 tumors; CTG-2041 tumors, FIG. 9D",inhibited
same,pAXL and pMER in tumors (Western blot),"CTG-2041 tumors; CTG-2041 tumors, FIG. 9D",inhibited
same,total MER levels in tumors (Western blot),"CTG-2041 tumors; CTG-2041 tumors, FIG. 9D",increased
